Measurements: patent publication US20060051374A1, “Compositions and methods for mucosal vaccination” (3M Innovative Properties Company, priority 2004, published 2006)

Tested on: OT-I cells
Assay: Total OT-I cell numbers in lymphoid tissues and percentage in nasal mucosa at Day 7 (Example 1)
Assay type: in vivo, C57BL/6 mice
Description: An Ovalbumin-IRM1 conjugate was prepared as follows. IRM1 was suspended in dimethyl sulfoxide (DMSO) to 10 mg/ml. Ovalbumin was suspended in phosphate buffered saline (PBS) to 10 mg/ml and the pH adjusted to >10.0 by the addition of NaOH. 500 μL of the ovalbumin solution (5 mg ovalbumin) was mixed with 100 μL of the IRM1 solution (1 mg IRM1) in a single well of a 12-well tissue culture plate. The plate was placed on ice and a long wavelength UV light source was placed directly over the plate as close to the well containing the IRM1/ovalbumin mixture as possible. The mixture was irradiated for 15 minutes. […]
Chicken Ovalbumin-specific CD8^+ T cells (OT-I, The Jackson Laboratories, Bar Harbor, Me.) were labeled with carboxyfluoroscein succinimidyl ester (CFSE, Molecular Probes, Inc., Eugene, Oreg.), a fluorescent dye that stains cells in a stabile manner, and then adoptively transferred into syngenic C57BL/6 mice (Charles River Laboratories, Wilmington, Mass.). […] Cells were then run on a FACSCaliber (Becton, Dickinson, and Co., San Jose, Calif.) and CD8^+SIINFEKL/K^b tetramer^+ T cells were analyzed for CFSE expression.
Separately, total OT-I cell numbers at Day 7 were counted in nasal associated lymphoid tissue (NALT), cervical lymph node (CLN), and spleen (Spl). […] Additionally, the percentage of OT-I cells in the nasal mucosa at determined at Day 7. […]

## CCOCc1nc2c(N)nc3ccccc3c2n1CC(C)(C)NC(=O)CCCCCNC(=O)c1ccc(N=[N+]=[N-])cc1O [IRM1, N-[6-({2-[4-amino-2-(ethoxymethyl)-1H-imidazo[4,5-c]quinolin-1-yl]-1,1-dimethylethyl}amino)-6-oxohexyl]-4-azido-2-hydroxybenzamide]
Ovalbumin-IRM1 conjugate intranasal, FIG. 2
  total OT-I cell numbers, intranasal IRM1 plus antigen versus antigen alone: greater total OT-I cell numbers at Day 7 than antigen alone
Ovalbumin-IRM1 conjugate, NALT, CLN, spleen, FIG. 2A-2C
  total OT-I cell numbers, intranasal versus intravenous delivery: greater total OT-I cell numbers at Day 7 than intravenous delivery in all lymphoid tissues examined
